From patent US11685747B2, “Compounds that inhibit MCL-1 protein” (AMGEN INC., priority 2014, dated 2023)

Legend:
OPM-2 = assay: Cell viability assay (OPM-2 10 FBS, CellTiter-Glo); type: cell-based, human; conditions: OPM-2 cells
Method: Cell Viability Assay (OPM-2 10 FBS)
Cells were seeded into 384-well plates at 3000 cells/well density in complete growth medium containing 10% FBS, and incubated for 16 h with serially diluted test compounds in a 37° C. incubator with 5% CO2. Cell viability was tested using CellTiter-Glo® assay (Promega, Madison, Wis.) according to the manufacturer recommendations. Luminescence was determined using an EnVision® Multilabel plate reader 25 min after the addition of detection reagent. IC50 values were then calculated with Xlfit using a logistical 4-parameter fit model in GraphPad Prism (GraphPad Software, San Diego, Calif.) or in Genedata Screener® (Genedata, Basel, Switzerland).

recombinant human Mcl-1 = biological target: T1, recombinant human Mcl-1 (Homo sapiens, UniProt Q07820); assay: Cell free Mcl-1:Bim affinity assay (Mcl-1 HTRF, TR-FRET); type: binding; conditions: inhibition of Mcl-1/Bim interaction
T1 construct: C-terminally 6×His tagged Mcl-1 containing residues 171-327; made in house
Method: Cell Free Mcl-1:Bim Affinity Assay (Mcl-1 HTRF)
The inhibition of the Mcl-1/Bim interaction was measured using a time-resolved fluorescence resonance energy transfer (TR-FRET) assay. […] A biotinylated peptide derived from human Bim (residues 51-76) was purchased from CPC Scientific (San Jose, Calif.). The TR-FRET assay was conducted in a 384-well white OptiPlate™ (PerkinElmer, Waltham, Mass.) in a total volume of 40 μL. […] The reaction plates were further incubated overnight and then were read on an Envision® multimode reader (PerkinElmer). […] The IC50 values of test compounds were determined from duplicate data by analyzing competition curves using a four-parameter sigmoidal model in GraphPad Prism (GraphPad Software, San Diego, Calif.) or in Genedata Screener® (Genedata, Basel, Switzerland).

[1] = biological target: T2, Mcl-1/Bak protein-protein interactions (Homo sapiens, UniProt Q07820); assay: Cell-based split luciferase complementation assay; conditions: HEK 293 M cells, serum-free, 4 h
T2 construct: expressed in transfected cells; host or cells: HEK 293 M cells, transient transfection
Method: Cell-Based Assay (Split Luciferase)
A split luciferase complementation assay was developed to determine the inhibition of Mcl-1/Bak protein-protein interactions in cells. […] Transient transfection was performed using Lipofectamine® LTX/Plus™ reagent (Life Technologies, Grand Island, N.Y.). 24 h after transfection, cells were collected using non-enzyme based cell dissociation buffer StemPro® Accutase® (Life Technologies), and resuspended in serum-free Opti-MEM® (Life Technologies). Cells were then seeded into assay plates with serially diluted test compounds in 0.3% DMSO at density of a 5000 cells/well. Cells were then incubated for 4 h at 37° C. in a cell culture incubator supplement with 5% CO2. Test plates were equilibrated to room temperate for 30 min before addition of 30 μL Steady-Glo® Luciferase assay reagent (Promega, Madison, Wis.) into each test well. Luminescence was determined using an EnVision® Multilabel plate reader 25 min after the addition of detection reagent. IC50 values were then calculated with Xlfit using a logistical 4-parameter fit model in GraphPad Prism (GraphPad Software, San Diego, Calif.) or in Genedata Screener® (Genedata, Basel, Switzerland).

T1 sequence (Q07820 171-327): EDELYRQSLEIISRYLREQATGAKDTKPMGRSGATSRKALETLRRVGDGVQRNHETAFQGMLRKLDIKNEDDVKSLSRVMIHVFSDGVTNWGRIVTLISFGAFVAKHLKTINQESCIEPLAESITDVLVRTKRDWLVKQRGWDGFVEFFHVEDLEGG
T2 sequence (Q07820 whole entry): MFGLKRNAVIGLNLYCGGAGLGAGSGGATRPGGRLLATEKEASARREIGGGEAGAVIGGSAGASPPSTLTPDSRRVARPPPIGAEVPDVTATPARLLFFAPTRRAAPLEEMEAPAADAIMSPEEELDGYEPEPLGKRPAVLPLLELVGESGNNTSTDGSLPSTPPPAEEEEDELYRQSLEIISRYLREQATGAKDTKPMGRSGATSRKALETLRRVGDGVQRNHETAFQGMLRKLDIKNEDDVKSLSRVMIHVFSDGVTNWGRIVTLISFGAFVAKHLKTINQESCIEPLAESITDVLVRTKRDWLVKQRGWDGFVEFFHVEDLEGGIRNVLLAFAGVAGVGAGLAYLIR

Row | Structure (SMILES) | IC50 (OPM-2; 16 h) [µM] | IC50 (recombinant human Mcl-1) [µM] | IC50 [1] [µM] | IC50 (OPM-2; Homo sapiens, OPM-2, 16 h) [µM] | IC50 (OPM-2; Homo sapiens, 16 h) [µM]
1 | CC(C)C[C@@H]1[C@@H](C)C/C=C/[C@H](O)[C@@H]2CC[C@H]2CN2C[C@@]3(CCCc4cc(Cl)ccc43)COc3ccc(cc32)C(=O)NS1(=O)=O (single isomer, unassigned) [Example 66] | 2.33 | 0.00212 | 0.224 |  | 
2 | CC[C@@H]1C/C=C/[C@H](O)[C@@H]2CC[C@H]2CN2C[C@@]3(CCCc4cc(Cl)ccc43)COc3ccc(cc32)C(=O)NS(=O)(=O)C1 (single isomer, unassigned) [Example 33] |  | 0.00702 | 0.872 | 14.9 | 
3 | C[C@H]1C/C=C/[C@H](O)[C@@H]2CC[C@H]2CN2C[C@@]3(CCCc4cc(Cl)ccc43)COc3ccc(cc32)C(=O)NS(=O)(=O)[C@@H]1C1CC1 (single isomer, unassigned) [Example 44] | 0.208 | 0.000297 | 0.0215 |  | 
4 | CC[C@@H]1[C@@H](C)C/C=C/[C@H](O)[C@@H]2CC[C@H]2CN2C[C@@]3(CCCc4cc(Cl)ccc43)COc3ccc(cc32)C(=O)NS1(=O)=O (single isomer, unassigned) [Example 24] |  | 0.000153 | 0.0201 | 0.125 | 
5 | O=C1NS(=O)(=O)CCC/C=C/[C@H](O)[C@@H]2CC[C@H]2CN2C[C@@]3(CCCc4cc(Cl)ccc43)COc3ccc1cc32 [Example 8, (1S,3′R,6′R,7′S,8′E)-6-Chloro-7′-Hydroxy-3,4-Dihydro-2H,15′H-Spiro[Naphthalene-1,22′-[20]Oxa[13]Thia[1,14]Diazatetracyclo[14.7.2.0^3,6.0^19,24]Pentacos A[8,16,18,24]Tetraen]-15′-One 13′,13′-Dioxide] |  | 0.000977 | 0.211 |  | 1.68
6 | CCCCO[C@H]1/C=C/C[C@H](C)[C@@H](C)S(=O)(=O)NC(=O)c2ccc3c(c2)N(C[C@@H]2CC[C@H]21)C[C@@]1(CCCc2cc(Cl)ccc21)CO3 [Example 73, (1S,3′R,6′R,7′S,8′E,11′S,12′R)-7′-Butoxy-6-Chloro-11′,12′-Dimethyl-3,4-Dihydro-2H,15′H-Spiro[Naphthalene-1,22′ [20]Oxa[13]Thia[1,14]Diazatetracyclo[14.7.2.0^3,6.0^19,24]Pentacos A[8,16,18,24]Tetraen]-15′-One 13′,13′-Dioxide] |  | 0.000367 | 0.0344 | 0.174 | 
7 | C[C@H]1C/C=C/[C@H](O)[C@@H]2CC[C@H]2CN2C[C@@]3(CCCc4cc(Cl)ccc43)COc3ccc(cc32)C(=O)NS(=O)(=O)C1 (single isomer, unassigned) [Example 29] | 5.58 | 0.00944 | 0.458 |  | 
8 | C[C@H]1C/C=C/[C@H](O)[C@@H]2CC[C@H]2CN2C[C@@]3(CCCc4cc(Cl)ccc43)COc3ccc(cc32)C(=O)NS(=O)(=O)[C@@H]1C1CCC1 (single isomer, unassigned) [Example 57] | 2.4 | 0.00215 | 0.375 |  | 
9 | CC[C@H]1C/C=C/[C@H](O)[C@@H]2CC[C@H]2CN2C[C@@]3(CCCc4cc(Cl)ccc43)COc3ccc(cc32)C(=O)NS(=O)(=O)C1 (single isomer, unassigned) [Example 34] |  | 0.000437 | 0.0377 | 0.253 | 
10 | CC(C)C[C@@H]1[C@@H](C)C/C=C/[C@H](O)[C@@H]2CC[C@H]2CN2C[C@@]3(CCCc4cc(Cl)ccc43)COc3ccc(cc32)C(=O)NS1(=O)=O (single isomer, unassigned) [Example 65] | 3.28 | 0.0053 | 0.376 |  | 
11 | CC[C@@H]1CCCC[C@H](OC)[C@@H]2CC[C@H]2CN2C[C@@]3(CCCc4cc(Cl)ccc43)COc3ccc(cc32)C(=O)NS1(=O)=O [Example 21, (1S,3′R,6′R,7′S,12′R)-6-Chloro-12′-Ethyl-7′-Methoxy-3,4-Dihydro-2H,15′H-Spiro[Naphthalene-1,22′-[20]Oxa[13]Thia[1,14]Diazatetracyclo[14.7.2.0^3,6.0^19,24]Pentacos A[16,18,24]Trien]-15′-One 13′,13′-Dioxide] |  | 0.00278 | 0.192 | 4.17 | 
12 | C[C@H]1C/C=C/[C@H](O)[C@@H]2CC[C@H]2CN2C[C@@]3(CCCc4cc(Cl)ccc43)COc3ccc(cc32)C(=O)NS(=O)(=O)[C@@H]1CC1CC1 (single isomer, unassigned) [Example 58] | 0.496 | 0.000918 | 0.0482 |  | 
13 | CC[C@@H]1CC/C=C/[C@H](OCCOC)[C@@H]2CC[C@H]2CN2C[C@@]3(CCCc4cc(Cl)ccc43)COc3ccc(cc32)C(=O)NS1(=O)=O [Example 75, (1S,3′R,6′R,7′S,8′E,12′R)-6-Chloro-12′-Ethyl-7′-(2-Methoxyethoxy)-3,4-Dihydro-2H,15′H-Spiro[Naphthalene-1,22′-[20]Oxa[13]Thia[1,14]Diazatetracyclo[14.7.2.0^3,6.0^19,24]Pentacosa[8,16,18,24]Tetraen]-15′-One 13′,13′-Dioxide] |  | 0.00283 | 0.159 | 2.56 | 
14 | C[C@@H]1C/C=C/[C@H](O)[C@@H]2CC[C@H]2CN2C[C@@]3(CCCc4cc(Cl)ccc43)COc3ccc(cc32)C(=O)NS(=O)(=O)C1 (single isomer, unassigned) [Example 30] | 0.161 | 0.00038 | 0.0265 |  | 
15 | CC(C)[C@@H]1[C@H](C)C/C=C/[C@H](O)[C@@H]2CC[C@H]2CN2C[C@@]3(CCCc4cc(Cl)ccc43)COc3ccc(cc32)C(=O)NS1(=O)=O (single isomer, unassigned) [Example 52] | 1.11 | 0.000882 | 0.14 |  | 
16 | C[C@H]1C/C=C/[C@H](O)[C@@H]2CC[C@H]2CN2C[C@@]3(CCCc4cc(Cl)ccc43)COc3ccc(cc32)C(=O)NS(=O)(=O)[C@@H]1CC1CC1 (single isomer, unassigned) [Example 61] | 1.32 | 0.00267 | 0.0687 |  | 
17 | C[C@H]1C/C=C/[C@H](O)[C@@H]2CC[C@H]2CN2C[C@@]3(CCCc4cc(Cl)ccc43)COc3ccc(cc32)C(=O)NS(=O)(=O)[C@@H]1C1CCC1 (single isomer, unassigned) [Example 56] | 0.208 | 0.000289 | 0.0319 |  | 
18 | CC[C@@H]1CCCC[C@H](O)[C@@H]2CC[C@H]2CN2C[C@@]3(CCCc4ccccc43)COc3ccc(cc32)C(=O)NS1(=O)=O [Example 22, (1S,3′R,6′R,7′S,12′R)-12′-Ethyl-7′-Hydroxy-3,4-Dihydro-2H,15′H-Spiro[Naphthalene-1,22′-[20]Oxa[13]Thia[1,14]Diazatetracyclo[14.7.2.0^3,6.0^19,24]Pentacos A[16,18,24]Trien]-15′-One 13′,13′-Dioxide] |  | 0.000704 | 0.117 | 1.25 | 
19 | C[C@@H]1CCC[C@H](O)[C@@H]2CC[C@H]2CN2C[C@@]3(CCCc4cc(Cl)ccc43)COc3ccc(cc32)C(=O)NS(=O)(=O)[C@@H]1C (single isomer, unassigned) [Example 35] | 0.723 | 0.000955 | 0.0843 |  | 
20 | COCCO[C@H]1/C=C/C[C@H](C)CS(=O)(=O)NC(=O)c2ccc3c(c2)N(C[C@@H]2CC[C@H]21)C[C@@]1(CCCc2cc(Cl)ccc21)CO3 (single isomer, unassigned) [Example 78] | 2.74 | 0.00267 | 0.42 |  | 
21 | C[C@H]1C/C=C/[C@H](O)[C@@H]2CC[C@H]2CN2C[C@@]3(CCCc4cc(Cl)ccc43)COc3ccc(cc32)C(=O)NS(=O)(=O)[C@@H]1C1CCC1 (single isomer, unassigned) [Example 55] | 8.69 | 0.0152 | 0.863 |  | 
22 | CO[C@H]1CCCC[C@@H](C)S(=O)(=O)NC(=O)c2ccc3c(c2)N(C[C@@H]2CC[C@H]21)C[C@@]1(CCCc2cc(Cl)ccc21)CO3 [Example 16, (1S,3′R,6′R,7′S,12′R)-6-Chloro-7′-Methoxy-12′-Methyl-3,4-Dihydro-2H,15′H-Spiro[Naphthalene-1,22′-[20]Oxa[13]Thia[1,14]Diazatetracyclo[14.7.2.0^3,6.0^19,24]Pentacos A[16,18,24]Trien]-15′-One 13′,13′-Dioxide] |  | 0.00208 | 0.107 | 4.33 | 
